Measured values taken from US20130085157A1, “ARYLSUBSTITUTED THIAZOLOTRIAZOLES AND THIAZOLOIMIDAZOLES” (priority 2011, published 2013).

Molecular target: T1, human TGR5 bile acid receptor (Homo sapiens, UniProt Q8TDU6)
T1 construct: The full length TGR5 gene is inserted into pCMV6 vector DNA (Origene); expressed in transfected cells
T1 sequence (Q8TDU6 1-330): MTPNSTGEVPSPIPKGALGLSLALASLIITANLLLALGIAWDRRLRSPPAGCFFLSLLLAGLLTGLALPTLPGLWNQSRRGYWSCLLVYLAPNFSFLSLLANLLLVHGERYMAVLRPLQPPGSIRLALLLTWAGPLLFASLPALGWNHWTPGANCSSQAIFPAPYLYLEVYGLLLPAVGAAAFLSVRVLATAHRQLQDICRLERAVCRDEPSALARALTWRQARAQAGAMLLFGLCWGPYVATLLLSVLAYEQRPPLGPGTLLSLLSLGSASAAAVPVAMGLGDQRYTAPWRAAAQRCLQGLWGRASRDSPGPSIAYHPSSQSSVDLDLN
Test: TGR5 receptor activation, HTRF cAMP assay in 293/humanTGR5 cells
Format: cell-based
Conditions: activation of 293/humanTGR5 (HEK 293) cells measured by cAMP levels, 30 minutes at 37° C., relative to vehicle and 50 μM of Compound 7
Procedure: Transformed E. coli stocks containing cDNA for the full length human TGR5 bile acid receptor (IMAGE clone #5221127) are obtained from Open Biosystems. Cultures are grown in LB broth, and cDNA is purified using Qiagen mini-prep columns. The full length TGR5 gene is inserted into pCMV6 vector DNA (Origene) by ligation followed by transformation in competent E. coli. Ampicillin-resistant clones are isolated and vector DNA containing the TGR5 gene is verified by DNA sequence analysis (Sequetech). The resulting plasmid is transfected into HEK 293 cells using FuGene 6 transfection reagent and the transfected cells are grown in the presence of 1 mg/mL G418 selection antibiotic. A number of individual G418 resistant colonies are isolated by using 150 μL cloning cylinders. The resulting 293/humanTGR5 expressing cell lines are then screened for responsiveness to the natural ligand lithocholic acid. A single clone is chosen for expansion and use for screening, this clone reproducibly responds to known receptor agonists for over 30 passages. The 293/humanTGR5 cells are maintained in DMEM/F12 media supplemented with 10% fetal bovine serum (Hyclone) and 15 mM HEPES buffer (Invitrogen). Cells are passaged twice weekly and maintained at densities to assure logarithmic growth. For use in cAMP assays, cells are trypsinzied, centrifuged, and resuspended in DMEM/F12 media supplemented with 0.5% FBA and 15 mM HEPES buffer. These cells are adjusted to a density which allows distribution of 25,000 cells in 20 μL of volume to each well of a half-area 96-well plate (Greiner Bio-One). 20 μL of test compounds diluted to a 2× concentration in DMEM/F12 media with 0.5% FBS are then added to the 96-well plates, and the plates are then incubated for 30 minutes at 37° C. in a 5% CO2 atmosphere. Levels of resulting cAMP for each treatment condition are then determined by use of an HTRF cAMP assay (CisBio) following the manufactures directions. The resulting data is analyzed using IDBX XLfit software and IC50 determinations are made for each test compound by comparing cAMP levels to vehicle controls (unstimulated) and TGR5 agonist-activated cells (50 μM of Compound 7, a reported TGR5 receptor agonist, J. Med. Chem., 2009, 52 (24), pp 7962-7965). Specificity for human TGR5 agonist activity is confirmed for compounds of interest by testing them against cell lines over expressing the mouse TGR5 receptor, human GPR119 receptor, and parent cell lines followed by measurement of resulting cAMP levels. Assay responsiveness is controlled for by measuring cAMP levels induced by 50 μM Forskolin in cells, a known adenylyl […] activator.

SMILES	EC50
C=C(c1ccc(OC)c(OC)c1)c1sc2nnc(SCc3c(F)cccc3Cl)n2c1-c1ccccc1 [Example 12, 3-[(2-chloro-6-fluoro-phenyl)methylsulfanyl]-6-[1-(3,4-dimethoxyphenyl)vinyl]-5-phenyl-thiazolo[2,3-c][1,2,4]triazole]	5 to 50 µM
c1ccc(-c2csc3nnc(SCc4ccc5c(c4)OCO5)n23)cc1 [Example 6, 3-(1,3-Benzodioxol-5-ylmethylsulfanyl)-5-phenyl-thiazolo[2,3-c][1,2,4]triazole]	5 to 50 µM
c1ccc(CCSc2nnc3scc(-c4ccccc4)n23)cc1 [Example 30]	5 to 50 µM
c1ccc(-c2csc3nnc(CCc4ccc5c(c4)OCO5)n23)cc1 [Example 4, 3-[2-(1,3-benzodioxol-5-yl)ethyl]-5-phenyl-thiazolo[2,3-c][1,2,4]triazole]	5 to 50 µM
OC(c1ccc(F)cc1)c1sc2nnc(SCc3ccc4c(c3)OCO4)n2c1-c1ccccc1 (centres unmarked) [Example 7, [3-(1,3-Benzodioxol-5-ylmethylsulfanyl)-5-phenyl-thiazolo[2,3-c][1,2,4]triazol-6-yl]-(4-fluorophenyl)methanol]	5 to 50 µM
Cc1ccc(N(C)C(=O)c2sc3nnc(SCc4ccc5c(c4)OCO5)n3c2-c2ccccc2)cc1Cl [Example 3, 3-(1,3-Benzodioxol-5-ylmethylsulfanyl)-N-(3-chloro-4-methyl-phenyl)-N-methyl-5-phenyl-thiazolo[2,3-c][1,2,4]triazole-6-carboxamide]	0.5 to 5 µM
COc1ccc(Cc2sc3nnc(SCc4c(F)cccc4Cl)n3c2-c2cccc(Cl)c2)cc1OC [Example 17, 3-[(2-Chloro-6-fluoro-phenyl)methylsulfanyl]-5-(3-chlorophenyl)-6-[(3,4-dimethoxyphenyl)methyl]thiazolo[2,3-c][1,2,4]triazole]	0.5 to 5 µM
Fc1cccc(Cl)c1CSc1nnc2scc(-c3ccccc3)n12 [Example 19]	5 to 50 µM
Cc1ccc(Nc2nnc3scc(-c4cc(Cl)ccc4Cl)n23)cc1Cl [Example 14, N-(3-chloro-4-methylphenyl)-5-(2,5-dichlorophenyl)thiazolo[2,3-c][1,2,4]triazol-3-amine]	0.5 to 5 µM
Cc1ccc(N(C)C(=O)c2sc3nnc(C)n3c2-c2ccccc2)cc1Cl [Example 2, N-(3-chloro-4-methyl-phenyl)-N,3-dimethyl-5-phenyl-thiazolo[2,3-c][1,2,4]triazole-6-carboxamide]	0.5 to 5 µM
c1ccc(-c2csc3nnc(Oc4ccc5c(c4)OCO5)n23)cc1 [Example 46]	5 to 50 µM
Clc1ccc(CSc2nnc3scc(-c4ccccc4)n23)cc1 [Example 26]	0.5 to 5 µM
Fc1ccc(-c2csc3nnc(SCc4ccc5c(c4)OCO5)n23)cc1 [Example 24]	5 to 50 µM
CCc1sc2nnc(SCc3ccc4c(c3)OCO4)n2c1-c1ccccc1 [Example 48]	5 to 50 µM
COc1ccc(Cc2sc3cnc(SCc4c(F)cccc4Cl)n3c2-c2cccc(Cl)c2)cc1OC [Example 18, 5-[(2-chloro-6-fluoro-phenyl)methylsulfanyl]-3-(3-chlorophenyl)-2-[(3,4-dimethoxyphenyl)methyl]imidazo[5,1-b]thiazole]	< 0.5 µM
Cc1nnc2sc(SCc3c(F)cccc3Cl)c(-c3ccccc3)n12 [Example 8, 6-[(2-Chloro-6-fluoro-phenyl)methylsulfanyl]-3-methyl-5-phenyl-thiazolo[2,3-c][1,2,4]triazole]	5 to 50 µM
Cc1ccc(N(C)C(=O)c2sc3nncn3c2-c2ccccc2)cc1Cl [Example 1, N-(3-chloro-4-methyl-phenyl)-N-methyl-5-phenyl-thiazolo[2,3-c][1,2,4]triazole-6-carboxamide]	0.5 to 5 µM
Fc1cccc(Cl)c1CSc1ncc2scc(-c3cccc(Cl)c3)n12 [Example 15, 5-[(2-chloro-6-fluoro-phenyl)methylsulfanyl]-3-(3-chlorophenyl)imidazo[5,1-b]thiazole]	< 0.5 µM
COc1ccc(C(C)(C)c2sc3nnc(SCc4c(F)cccc4Cl)n3c2-c2ccccc2)cc1OC [Example 11, 3-[(2-chloro-6-fluoro-phenyl)methylsulfanyl]-6-[1-(3,4-dimethoxyphenyl)-1-methyl-ethyl]-5-phenyl-thiazolo[2,3-c][1,2,4]triazole]	0.5 to 5 µM
c1ccc(-c2csc3nnc(SCc4ccc5cnccc5c4)n23)cc1 [Example 43]	5 to 50 µM

Further lines, results first:

EC50	SMILES
0.5 to 5 µM	COc1cc(Br)c(Cc2sc3nnc(SCc4c(F)cccc4Cl)n3c2-c2ccc(F)c(Cl)c2)c(Br)c1OC [Example 112]
0.5 to 5 µM	Cc1ccc(-c2csc3nnc(SCc4c(F)cccc4Cl)n23)cc1Cl [Example 86]
5 to 50 µM	c1ccc2cc(-c3csc4nnc(SCc5ccc6c(c5)OCO6)n34)ccc2c1 [Example 131]
5 to 50 µM	CC(c1ccccc1)c1sc2nnc(SCc3c(F)cccc3Cl)n2c1-c1ccc(F)cc1 (centres unmarked) [Example 98]
0.5 to 5 µM	COc1ccc(CSc2nnc3sc(-c4c(F)cccc4Cl)c(-c4ccc(F)cc4)n23)cc1F [Example 94]
0.5 to 5 µM	Fc1cccc(Cl)c1CSc1nnc2scc(-c3cccc(Cl)c3)n12 [Example 117]
0.5 to 5 µM	Cc1ccc(N(C)c2nnc3scc(-c4cc(Cl)ccc4Cl)n23)cc1Cl [Example 120]
< 0.5 µM	Cc1cc(-c2csc3nnc(SCc4ccc5c(c4)OCO5)n23)ccc1F [Example 115]
5 to 50 µM	Fc1ccc(-c2c(-c3c(F)cccc3Cl)sc3nnc(Cc4ccc5c(c4)OCO5)n23)cc1 [Example 97]
0.5 to 5 µM	COc1ccc(Cc2sc3nnc(SCc4c(F)cccc4Cl)n3c2-c2ccc(F)cc2)cc1OC [Example 83]
< 0.5 µM	Fc1ccc(-c2csc3nnc(SCc4ccc5c(c4)OCO5)n23)cc1Br [Example 53]
0.5 to 5 µM	COC(=O)c1cccc(CSc2nnc3scc(-c4cccc(Br)c4)n23)c1 [Example 66]
0.5 to 5 µM	COc1cc(Br)c(Cc2sc3nnc(SCc4c(F)cccc4Cl)n3c2-c2ccc(F)c(Cl)c2)cc1OC [Example 119]
0.5 to 5 µM	Fc1cccc(Cl)c1CSc1cnc2scc(-c3cccc(Cl)c3)n12 [Example 138, 5-[(2-chloro-6-fluoro-phenyl)methylsulfanyl]-3-(3-chlorophenyl)imidazo[2,1-b]thiazole]
5 to 50 µM	CN(C(=O)C(C)(C)C)c1cc(F)ccc1-c1csc2nnc(SCc3ccc4c(c3)OCO4)n12 [Example 59]
0.5 to 5 µM	c1cc(-c2csc3nnc(SCc4ccc5c(c4)OCO5)n23)cc(C2CC2)c1 [Example 80]
0.5 to 5 µM	COc1ccc(-c2csc3nnc(SCc4ccc5c(c4)OCO5)n23)c(Cl)c1 [Example 65]
0.5 to 5 µM	COc1cc(Cl)c(Cc2sc3nnc(SCc4ccc5c(c4)OCO5)n3c2-c2cccc(Cl)c2)cc1OC [Example 127]
< 0.5 µM	Cc1ccc(-c2csc3nnc(SCc4c(F)cccc4Cl)n23)cc1 [Example 109]
0.5 to 5 µM	Clc1cccc(-c2csc3nnc(SCc4ccc5c(c4)OCO5)n23)c1Cl [Example 76]
0.5 to 5 µM	COc1cc(-c2csc3nnc(SCc4ccc5c(c4)OCO5)n23)ccc1F [Example 50]
0.5 to 5 µM	COc1ccc(Cc2sc3nnc(SCc4c(F)cccc4Cl)n3c2-c2ccc(F)c(Cl)c2)cc1Cl [Example 100]
0.5 to 5 µM	COc1ccc(Cc2sc3nnc(SCc4ccc(F)cc4F)n3c2-c2ccc(F)c(Cl)c2)cc1Cl [Example 106]
< 0.5 µM	Brc1cccc(-c2csc3nnc(SCc4ccc5c(c4)OCO5)n23)c1 [Example 69]
